As a reminder, the inhibition is how much of the control response was suppressed. Broadly, the IC50 is the concentration needed to halve the response being measured.

Read-outs that look alike come from different tables or passages of the source.

Test [1] has as its system HP1-mediated heterochromatin gene repression at the CiA:Oct4 locus. Briefly: HP1-recruitment assay (CiA:Oct4), % GFP (+) cells by flow cytometry. The note with it: 48 h, CIP-rapamycin HP1 recruitment. Format: cell-based, mouse. The text has this:
To elucidate the effect of DFP-based KDM inhibitors have on chromatin dynamics, we profiled them in an intracellular assay which measures heterochromatin formation speed. The chromatin assay (CiA) leverages chemical induced proximity (CTP) to recruit heterochromatin protein 1 (HP1) to a modified Oct4 locus. This reporter system inserts tandem arrays of Gal4 and zinc finger DNA binding domains in the promoter of one allele of Oct4, where the gene is replaced by a nuclear eGFP reporter. Protein fusions of Gal4-FKBP and FRRB—HP1 allow for direct chemical recruitment of HP1 to the CiA:Oct4 reporter locus upon addition of the chemical inducer of proximity (CIP)-rapamycin. After CIP-rapamycin addition, HIP1 is recruited to the reporter locus and brings histone methyltransferase enzymes to the chromatin reporter resulting in the repressive H3K9me3 mark being deposited. H3K9me3 deposition leads to heterochromatin formation and gene silencing (FIG. 7A). Others have shown that H3K4me3 marked nucleosomes impede H3K9 methyltransferases. Thus, we postulate that the active H3K4me3 mark mast be removed by KDM enzymes as part of the transformation from euchromatin to heterochromatin. Inhibition of KDMs, specifically those targeting H3K4me3, would result in a decrease in H3K9me3 accumulation, which would be measured in our assay as an increase in % GFP (+) cells.
To determine the effect of DFP-based KDM inhibitors on HP1-mediated gene repression, we treated CiA:Oct4 embryonic stem (ES) cells with doses of representative compounds ranging from […] for 48 h with and without CIP-rapamycin recruiting HP1 (FIG. 7B). […] Dose response curves of DFP derivatives abler 48 h with C) and without D) HP1 recruitment at 10000, 5000, 2500, 1000, 500, 250, and 0 nM concentrations. Flow cytometry was used to determine the % GFP (+) cells following treatment. n=6
The CiA:Oct4 recruitment system in mouse embryonic stem cells contains Gal4 and Zinc finger DNA binding arrays and a downstream nuclear eGFP gene in place of a single Oct4 allele as previously described. The CiA:Oct4 N118/N163 cell line containing viral integrations of N118 and N163 plasmids (N118-nLV EF-1α-Gal-FKBPx1-HA-PGK-Blast, N163-nLV EF-1α-HP1α (CS)-Frbx2(Frb+FrbWobb)-V5-PGK-Puro) was used for inhibition of HP1-mediated heterochromatin studies. All plasmids are freely available on addgene.
Day 0, CiA:Oct4 N118/163 cells were grown in ES media and seeded at a density of 10,000 cells per well (100.000 cells/ml) into gelatin coated 96 well plates. Day 1, culture media was aspirated and replaced with 100 μl ES media containing +/−6 nM rapamycin. 10 μM, 5 μM, 2.5 μM, 1 μM, 500 nM, and 250 nM concentrations of compound or DMSO were added using a TTP Labtech Mosquito HTS liquid handler. Days 2-4. fresh ES media+/−rapamycin and compound were added as in Day 1.
Day 3 and 5, cells were washed with PBS and trypsinized using 0.25% trypsin-EDTA. Trypsin was quenched with serum. Cells were resuspended by pipetting in preparation for flow cytometry analysis.
Flow cytometry data was acquired using the Intellicyt iQue Screener and analyzed with FlowJo software. Cell populations were gated based on forward and side scatter height. Single cell populations were gated using forward scatter area by forward scatter height. Autofluorescent cells were excluded and the remaining cells were gated into GFP (−) and GFP (+) populations based on DMSO control samples.
Background: A flow cytometer gives signals particle by particle.

In test [2] the target is T1, KDM6A (UTX) (Homo sapiens, UniProt O15550). Briefly: biochemical. The note with it: for inhibition at 1 µM: read-out: KDM6A (UTX) Inhibition (%) 1 (μM); for inhibition at 10 µM: read-out: KDM6A (UTX) Inhibition (%) 10 (μM).
T1 sequence (O15550 whole entry): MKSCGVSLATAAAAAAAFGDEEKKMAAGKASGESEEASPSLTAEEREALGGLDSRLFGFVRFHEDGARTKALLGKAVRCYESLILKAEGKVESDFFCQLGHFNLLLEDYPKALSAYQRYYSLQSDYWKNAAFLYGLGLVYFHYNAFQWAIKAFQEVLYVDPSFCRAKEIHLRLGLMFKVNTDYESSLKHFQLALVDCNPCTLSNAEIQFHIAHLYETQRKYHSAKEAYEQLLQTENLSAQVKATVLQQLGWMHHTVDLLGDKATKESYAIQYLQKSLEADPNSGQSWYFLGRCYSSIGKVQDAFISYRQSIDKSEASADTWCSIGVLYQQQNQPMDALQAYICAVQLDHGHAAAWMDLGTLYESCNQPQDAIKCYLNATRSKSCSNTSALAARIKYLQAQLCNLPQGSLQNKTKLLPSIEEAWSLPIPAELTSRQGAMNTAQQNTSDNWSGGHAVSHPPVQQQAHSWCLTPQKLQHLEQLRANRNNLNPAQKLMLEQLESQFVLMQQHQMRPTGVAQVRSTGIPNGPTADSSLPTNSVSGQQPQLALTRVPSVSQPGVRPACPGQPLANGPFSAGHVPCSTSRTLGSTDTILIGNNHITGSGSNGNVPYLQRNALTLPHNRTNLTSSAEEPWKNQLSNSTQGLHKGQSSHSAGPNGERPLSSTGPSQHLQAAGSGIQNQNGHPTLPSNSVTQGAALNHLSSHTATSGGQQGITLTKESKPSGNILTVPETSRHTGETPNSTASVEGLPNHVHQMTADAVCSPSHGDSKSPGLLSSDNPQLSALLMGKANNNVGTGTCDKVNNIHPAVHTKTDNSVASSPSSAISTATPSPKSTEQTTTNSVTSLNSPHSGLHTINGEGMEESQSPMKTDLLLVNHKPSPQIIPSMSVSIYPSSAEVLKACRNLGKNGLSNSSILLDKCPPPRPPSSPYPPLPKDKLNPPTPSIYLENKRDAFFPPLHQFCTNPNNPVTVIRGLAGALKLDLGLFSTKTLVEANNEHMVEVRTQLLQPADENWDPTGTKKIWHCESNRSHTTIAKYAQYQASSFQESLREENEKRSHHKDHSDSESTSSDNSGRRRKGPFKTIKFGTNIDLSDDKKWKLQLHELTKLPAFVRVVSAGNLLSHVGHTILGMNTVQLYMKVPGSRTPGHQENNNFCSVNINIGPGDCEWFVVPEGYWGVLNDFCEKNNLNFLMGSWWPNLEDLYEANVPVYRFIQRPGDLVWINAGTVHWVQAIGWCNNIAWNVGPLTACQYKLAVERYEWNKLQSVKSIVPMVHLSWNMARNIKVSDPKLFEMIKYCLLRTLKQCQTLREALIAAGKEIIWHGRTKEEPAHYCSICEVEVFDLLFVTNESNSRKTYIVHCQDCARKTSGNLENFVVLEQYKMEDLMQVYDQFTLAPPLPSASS
Another test relates to MDA-MB-231 (TNBC BCa). Put plainly: Cell viability assay (MTS), MDA-MB-231. The format is cell-based. The conditions noted are these: NI = no inhibition, read-out: Antiproliferative Activity IC50 (μM) MDA-MB-231.
Test [3] addresses T1, KDM6A (UTX). The note with it: for IC50 against KDM6A (in words): cell-free; for KDM6A (UTX) Inhibition (%) 1 (μM): compound at 1 μM; for KDM6A (UTX) Inhibition (%) 10 (μM): compound at 10 μM.

Take `Cc1c(O)c(=O)ccn1CCn1cc(-c2ccccc2)nn1` [Compound 1a]: in test [1], the “inhibition of heterochromatin formation (in words)” value (from here on “inhibition … (in words)”) was “weak inhibitors”. For the same compound, at KDM6A (UTX) [2], the inhibition at 1 µM came to 12% and the inhibition at 10 µM is 96%.

On to `Cc1ccc(-c2cn(CCCCn3ccc(=O)c(O)c3C)nn2)cc1` [Compound 2e, 3-Hydroxy-2-methyl-1-(4-(4-(p-tolyl)-1H-1,2,3-triazol-1-yl)butyl)pyridin-4(1H)-one], for which, at KDM6A (UTX) [2], the inhibition at 1 µM stood at 13% and the inhibition at 10 µM was determined as 100%.

Regarding `COc1ccccc1-c1cn(CCCCn2ccc(=O)c(O)c2C)nn1` [Compound 2g, 3-Hydroxy-1-(4-(4-(2-methoxyphenyl)-1H-1,2,3-triazol-1-y)butyl)-2-methylpyridin-4(1H)-one], the IC50 with MDA-MB-231 (TNBC BCa) (72 h) was determined as 9.6 µM.

For the compound `COc1ccccc1-c1cn(CCCCCn2ccc(=O)c(O)c2C)nn1` [Compound 2h, 3-Hydroxy-1-(5-(4-(2-methoxyphenyl)-1H-1,2,3-triazol-1-yl)pentyl)-2-methylpyridin-4(1H)-one], on KDM6A (UTX) [2], the inhibition at 1 µM turned out to be 3% and the inhibition at 10 µM was found to be 99%.

As to `COc1cccc(-c2cn(CCCCCn3ccc(=O)c(O)c3C)nn2)c1` [Compound 2j, 3-Hydroxy-1-(5-(4-(3-methoxyphenyl)-1H-1,2,3-triazol-1-yl)pentyl)-2-methylpyridin-4(1H)-one], the IC50 in the test with MDA-MB-231 (TNBC BCa) (Homo sapiens, MDA-MB-231, 72 h) was found to be 19.6 µM. Moreover, in test [1], the “increase in GFP expression” value came to 20% and the “inhibition … (in words)” value is “significantly inhibited”. Moreover, on KDM6A (UTX) [3], the “IC50 against KDM6A (in words)” value is “low micromolar”. On KDM6A (UTX) [2], the inhibition at 1 µM was determined as 8% and the inhibition at 10 µM is 100%.

With `COc1ccc(-c2cn(CCCCCn3ccc(=O)c(O)c3C)nn2)cc1` [Compound 2l, 3-Hydroxy-1-(5-(4-(4-methoxyphenyl)-1H-1,2,3-triazol-1-yl)pentyl)-2-methylpyridin-4(1H)-one], on KDM6A (UTX) [2], the inhibition at 1 µM stood at 4% and the inhibition at 10 µM is 100%.

Consider `Cc1c(O)c(=O)ccn1CCCCCn1cc(-c2ccccc2F)nn1` [Compound 2m], for which, in the test on MDA-MB-231 (TNBC BCa) (72 h), the IC50 is 18.3 µM. Further, on KDM6A (UTX) [3], the “KDM6A (UTX) Inhibition (%) 1 (μM)” value came to 16% and the “KDM6A (UTX) Inhibition (%) 10 (μM)” value was determined as 100%.

Turning to `Cc1c(O)c(=O)ccn1CCCCCn1cc(-c2cccc(F)c2)nn1` [Compound 2n, 1-(5-(4-(3-Fluorophenyl)-1H-1,2,3-triazol-1-yl)pentyl)-3-hydroxy-2-methylpyridin-4(1H)-one], on KDM6A (UTX) [2], the inhibition at 1 µM came to 5% and the inhibition at 10 µM turned out to be 100%.

Regarding `Cc1c(O)c(=O)ccn1CCCCCn1cc(-c2ccc(F)cc2)nn1` [Compound 2o, 1-(5-(4-(4-Fluorophenyl)-1H-1,2,3-triazol-1-yl)pentyl)-3-hydroxy-2-methylpyridin-4(1H)-one], on KDM6A (UTX) [2], the inhibition at 1 µM came to 10% and the inhibition at 10 µM was 100%.

Take `Cc1c(O)c(=O)ccn1CCCCCn1cc(-c2ccccc2C(F)(F)F)nn1` [Compound 2p, 3-Hydroxy-2-methyl-1-(5-(4-(2-(trifluoromethyl)phenyl)-1H-1,2,3-triazol-1-yl)pentyl)pyridin-4(1H)-one]: at KDM6A (UTX) [2], the inhibition at 1 µM was determined as 15% and the inhibition at 10 µM came to 99%.

As for `Cc1c(O)c(=O)ccn1CCCCCn1cc(-c2ccc(N(C)C)cc2)nn1` [Compound 2r, 1-(5-(4-(4-(Dimethylamino)phenyl)-1H-1,2,3-triazol-1-yl)pentyl)-3-hydroxy-2-methylpyridin-4(11)-one], the IC50 in the test with MDA-MB-231 (TNBC BCa) (72 h) was determined as 12.5 µM.

As for `Cc1c(O)c(=O)ccn1CCCCCn1cc(-c2ccccn2)nn1` [Compound 2s, 3-Hydroxy-2-methyl-1-(5-(4-(pyridin-2-yl)-1H-1,2,3-triazol-1-yl)pentyl)pyridin-4(1H)-one], on KDM6A (UTX) [2], the inhibition at 1 µM turned out to be 15% and the inhibition at 10 µM turned out to be 99%.

Turning to `Cc1c(O)c(=O)ccn1CCCCCn1cc(-c2ccc(-c3ccncc3)cc2)nn1` [Compound 2t, 3-Hydroxy-2-methyl-1-(5-(4-(4-(pyridin-4-yl)phenyl)-1H-1,2,3-triazol-1-yl)pentyl)pyridin-4(1H)-one], in test [1], the “concentration at which maximum inhibition of heterochromatin formation / gene repression is reached” value is 10 µM and the “inhibition … (in words)” value was “significantly inhibited”. For the same compound, at KDM6A (UTX) [2], the inhibition at 1 µM came to 8% and the inhibition at 10 µM was found to be 99%.

Turning to `Cc1c(O)c(=O)ccn1CCCCCCn1cc(-c2ccc(-c3ccccc3)cc2)nn1` [Compound 2v, 1-(6-(4-([1,1-Biphenyl]-4-yl)-1H-1,2,3-triazol-1-yl)hexyl)-3-hydroxy-2-methylpyridin-4(1H)-one], in test [1], the “concentration at which maximum inhibition of heterochromatin formation / gene repression is reached” value was 1 µM and the “inhibition … (in words)” value is “significantly inhibited”.

On to `COc1ccc2cc(-c3cn(CCCCCCn4ccc(=O)c(O)c4C)nn3)ccc2c1` [Compound 2w, 3-Hydroxy-1-(6-(4-(6-methoxynaphthalen-2-yl)-1H-1,2,3-triazol-1-yl)hexyl)-2-methylpyridin-4(1H)-one], for which, in test [1], the “concentration at which maximum inhibition of heterochromatin formation / gene repression is reached” value amounted to 1 µM and the “inhibition … (in words)” value was “significantly inhibited”.

For the compound `Cc1c(O)c(=O)ccn1CCCCn1ccc(=O)c(O)c1C` [Compound 3a], at KDM6A (UTX) [3], the “KDM6A (UTX) Inhibition (%) 1 (μM)” value is listed as 4% and the “KDM6A (UTX) Inhibition (%) 10 (μM)” value was 100%.

As for `Cc1c(O)c(=O)ccn1CCCCCn1ccc(=O)c(O)c1C` [Compound 3b], at KDM6A (UTX) [3], the “KDM6A (UTX) Inhibition (%) 1 (μM)” value stood at 1% and the “KDM6A (UTX) Inhibition (%) 10 (μM)” value is given as 99%.

Regarding `Cc1c(O)c(=O)ccn1CCCCCCn1ccc(=O)c(O)c1C` [Compound 3c], at KDM6A (UTX) [3], the “KDM6A (UTX) Inhibition (%) 1 (μM)” value is recorded as 2% and the “KDM6A (UTX) Inhibition (%) 10 (μM)” value amounted to 100%.

As to `Cc1c(O)c(=O)ccn1CCCCCCCn1ccc(=O)c(O)c1C` [Compound 3d], at KDM6A (UTX) [3], the “KDM6A (UTX) Inhibition (%) 1 (μM)” value is reported as 3% and the “KDM6A (UTX) Inhibition (%) 10 (μM)” value is 100%.

Take `Cc1c(O)c(=O)ccn1Cc1ccc(Cn2ccc(=O)c(O)c2C)cc1` [Compound 3f, 1,1′-(1,4-Phenylenebis(methylene))bis(3-hydroxy-2-methylpyridin-4(1H)-one)]: at KDM6A (UTX) [2], the inhibition at 1 µM turned out to be 5% and the inhibition at 10 µM came to 100%.

Consider `Cc1c(O)c(=O)ccn1C1CCC(CC2CCC(n3ccc(=O)c(O)c3C)CC2)CC1` (stereo not drawn) [Compound 3g, 1,1′-(Methylenebis(cyclohexane-4,1-diyl))bis(3-hydroxy-2-methylpyridin-4(1H)-one)], for which, in test [1], the “concentration at which maximum inhibition of heterochromatin formation / gene repression is reached” value worked out at 2.5 µM and the “inhibition … (in words)” value is “significantly inhibited”. The “IC50 against KDM6A (in words)” value on KDM6A (UTX) [3] is on record as “low micromolar”. Moreover, on KDM6A (UTX) [2], the inhibition at 1 µM was 9% and the inhibition at 10 µM is 100%.

As to `CC/C(=C(\c1ccccc1)c1ccc(OCCN(C)Cc2ccc(-c3cn(CCn4ccc(=O)c(O)c4C)nn3)cc2)cc1)c1ccccc1` [Compound 36a], the IC50 in the test on MDA-MB-231 (TNBC BCa) (Homo sapiens, MDA-MB-231, 72 h) amounted to 1.6 µM. At KDM6A (UTX) [2], the inhibition at 1 µM turned out to be 9% and the inhibition at 10 µM was 100%.

Values taken from patent US20250268880A1, “3-(Hydroxy)-Pyridin-4(1H)-One Compounds and Methods of Making and Using the Same” (Georgia Tech Research Corporation, priority 2018, published 2025).
